Test results reported in article PMC5053573, “Structure-Based Design of Tetrahydroisoquinoline-7-carboxamides as Selective Discoidin Domain Receptor 1 (DDR1) Inhibitors” (Journal of Medicinal Chemistry, 2016).

Assays:
Test in all cases: biochemical
Settings in all cases: read-out: %Ctrl @ 1000nM
NDR2 = molecular target: T1, NDR2 (Homo sapiens, UniProt Q9Y2H1)
T1 construct: gene STK38L

CSNK1A1 = CSNK1A1 (Homo sapiens, UniProt P48729)
FGFR4 = FGFR4 (Homo sapiens, UniProt P22455)
MST2 = molecular target: T2, MST2 (Homo sapiens, UniProt Q13188)
T2 construct: gene STK3

SgK110 = molecular target: T3, SgK110 (Homo sapiens, UniProt P0C264)
T3 construct: gene SBK3

CSNK1G2 = CSNK1G2 (Homo sapiens, UniProt P78368)
MAP3K4 = MAP3K4 (Homo sapiens, UniProt Q9Y6R4)
CDKL3 = CDKL3 (Homo sapiens, UniProt Q8IVW4)
Sequence of CDKL3 (Q8IVW4 whole entry): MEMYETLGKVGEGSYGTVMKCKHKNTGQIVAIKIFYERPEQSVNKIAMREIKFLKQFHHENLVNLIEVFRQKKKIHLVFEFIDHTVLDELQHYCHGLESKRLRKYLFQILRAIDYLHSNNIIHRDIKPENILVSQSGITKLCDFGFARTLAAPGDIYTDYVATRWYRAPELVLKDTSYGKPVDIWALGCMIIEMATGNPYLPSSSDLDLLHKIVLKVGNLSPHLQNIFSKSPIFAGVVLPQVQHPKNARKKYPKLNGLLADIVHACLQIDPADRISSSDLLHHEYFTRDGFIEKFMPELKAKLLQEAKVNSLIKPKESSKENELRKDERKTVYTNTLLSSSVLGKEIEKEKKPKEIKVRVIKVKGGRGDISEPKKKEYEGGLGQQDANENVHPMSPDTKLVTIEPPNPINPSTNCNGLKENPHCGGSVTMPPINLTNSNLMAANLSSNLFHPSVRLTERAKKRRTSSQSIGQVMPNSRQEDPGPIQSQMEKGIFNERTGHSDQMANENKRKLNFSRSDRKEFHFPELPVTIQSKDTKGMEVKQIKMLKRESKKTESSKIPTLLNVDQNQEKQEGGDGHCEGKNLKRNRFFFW

FLT3(D835H) = FLT3(D835H) (Homo sapiens, UniProt P36888, D835H)
IRAK4 = IRAK4 (Homo sapiens, UniProt Q9NWZ3)
IRAK3 = IRAK3 (Homo sapiens, UniProt Q9Y616)
PIK3CA(Q546K) = PIK3CA(Q546K) (Homo sapiens, UniProt P42336, Q546K)
Sequence of PIK3CA(Q546K) (P42336 whole entry Q546K): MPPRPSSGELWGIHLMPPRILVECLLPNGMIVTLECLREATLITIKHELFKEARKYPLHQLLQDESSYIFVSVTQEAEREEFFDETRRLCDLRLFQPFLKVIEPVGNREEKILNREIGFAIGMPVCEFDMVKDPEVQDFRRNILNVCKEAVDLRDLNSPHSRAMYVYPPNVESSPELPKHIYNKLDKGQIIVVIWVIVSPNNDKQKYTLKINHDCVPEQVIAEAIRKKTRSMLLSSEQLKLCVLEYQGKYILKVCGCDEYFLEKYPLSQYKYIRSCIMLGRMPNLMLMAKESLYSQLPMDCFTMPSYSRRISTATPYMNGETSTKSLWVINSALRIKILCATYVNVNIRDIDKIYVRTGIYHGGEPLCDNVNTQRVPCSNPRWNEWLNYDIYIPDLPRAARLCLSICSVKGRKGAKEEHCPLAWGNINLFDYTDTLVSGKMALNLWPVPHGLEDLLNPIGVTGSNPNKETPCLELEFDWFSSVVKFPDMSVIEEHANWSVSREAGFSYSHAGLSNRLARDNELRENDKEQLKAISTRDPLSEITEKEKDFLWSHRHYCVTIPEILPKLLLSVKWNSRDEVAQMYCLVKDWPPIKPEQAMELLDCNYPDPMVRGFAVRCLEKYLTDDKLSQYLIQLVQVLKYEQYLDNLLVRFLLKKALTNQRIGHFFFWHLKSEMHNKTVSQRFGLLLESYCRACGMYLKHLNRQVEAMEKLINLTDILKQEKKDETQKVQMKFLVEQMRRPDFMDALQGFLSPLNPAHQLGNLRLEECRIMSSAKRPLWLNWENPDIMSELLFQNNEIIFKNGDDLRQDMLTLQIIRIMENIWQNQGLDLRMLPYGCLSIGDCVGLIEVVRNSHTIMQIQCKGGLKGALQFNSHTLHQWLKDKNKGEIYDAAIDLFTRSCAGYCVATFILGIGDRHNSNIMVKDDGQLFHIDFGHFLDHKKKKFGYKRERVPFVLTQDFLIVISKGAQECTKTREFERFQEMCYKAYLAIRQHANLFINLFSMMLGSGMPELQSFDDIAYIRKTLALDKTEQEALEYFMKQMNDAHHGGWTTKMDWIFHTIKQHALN

HASPIN = HASPIN (Homo sapiens, UniProt Q8TF76)
FLT3(K663Q) = FLT3(K663Q) (Homo sapiens, UniProt P36888, K663Q)
MRCKA = molecular target: T4, MRCKA (Homo sapiens, UniProt Q5VT25)
T4 construct: gene CDC42BPA

EPHA5 = EPHA5 (Homo sapiens, UniProt P54756)
EPHA7 = EPHA7 (Homo sapiens, UniProt Q15375)
STK39 = STK39 (Homo sapiens, UniProt Q9UEW8)
ROCK2 = ROCK2 (Homo sapiens, UniProt O75116)
Sequence of ROCK2 (O75116 whole entry): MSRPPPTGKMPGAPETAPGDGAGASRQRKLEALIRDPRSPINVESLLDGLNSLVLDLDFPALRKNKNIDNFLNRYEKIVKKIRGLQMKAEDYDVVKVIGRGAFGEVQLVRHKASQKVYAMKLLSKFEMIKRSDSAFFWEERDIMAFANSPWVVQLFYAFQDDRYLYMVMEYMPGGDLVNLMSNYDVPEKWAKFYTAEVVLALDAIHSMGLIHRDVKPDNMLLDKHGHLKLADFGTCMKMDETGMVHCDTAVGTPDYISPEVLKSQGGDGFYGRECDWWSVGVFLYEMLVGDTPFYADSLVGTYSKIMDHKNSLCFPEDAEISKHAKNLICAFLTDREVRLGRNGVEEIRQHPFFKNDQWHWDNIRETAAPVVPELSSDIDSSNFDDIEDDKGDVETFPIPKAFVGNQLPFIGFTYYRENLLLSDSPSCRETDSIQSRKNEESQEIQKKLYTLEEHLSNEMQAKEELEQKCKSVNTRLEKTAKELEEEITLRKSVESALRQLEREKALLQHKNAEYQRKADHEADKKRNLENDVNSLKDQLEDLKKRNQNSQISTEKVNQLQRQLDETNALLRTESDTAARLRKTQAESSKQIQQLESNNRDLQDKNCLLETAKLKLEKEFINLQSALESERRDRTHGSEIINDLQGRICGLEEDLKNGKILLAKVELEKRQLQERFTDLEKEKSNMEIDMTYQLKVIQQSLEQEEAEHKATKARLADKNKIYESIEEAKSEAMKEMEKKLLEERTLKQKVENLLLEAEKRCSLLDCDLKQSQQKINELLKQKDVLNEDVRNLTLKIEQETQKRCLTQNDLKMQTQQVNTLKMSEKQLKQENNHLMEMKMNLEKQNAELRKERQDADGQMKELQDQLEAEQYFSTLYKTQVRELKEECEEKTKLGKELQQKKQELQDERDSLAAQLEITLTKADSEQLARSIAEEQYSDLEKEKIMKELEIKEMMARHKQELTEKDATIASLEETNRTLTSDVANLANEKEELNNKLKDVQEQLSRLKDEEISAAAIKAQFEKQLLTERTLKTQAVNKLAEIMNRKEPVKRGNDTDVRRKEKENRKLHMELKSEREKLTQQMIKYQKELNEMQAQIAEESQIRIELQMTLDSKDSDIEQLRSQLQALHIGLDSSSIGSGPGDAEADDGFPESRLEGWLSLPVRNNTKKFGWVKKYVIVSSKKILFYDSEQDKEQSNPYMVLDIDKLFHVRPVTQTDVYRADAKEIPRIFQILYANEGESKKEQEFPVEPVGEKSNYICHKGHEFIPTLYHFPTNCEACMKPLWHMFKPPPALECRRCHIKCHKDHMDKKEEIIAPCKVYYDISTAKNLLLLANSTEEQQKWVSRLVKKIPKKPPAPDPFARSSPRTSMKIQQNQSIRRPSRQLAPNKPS

AMPK-alpha1 = molecular target: T5, AMPK-alpha1 (Homo sapiens, UniProt Q13131)
T5 construct: gene PRKAA1

PRKD2 = PRKD2 (Homo sapiens, UniProt Q9BZL6)
AKT1 = AKT1 (Homo sapiens, UniProt P31749)
MAP4K2 = MAP4K2 (Homo sapiens, UniProt Q12851)
CLK2 = CLK2 (Homo sapiens, UniProt P49760)
Sequence of CLK2 (P49760 whole entry): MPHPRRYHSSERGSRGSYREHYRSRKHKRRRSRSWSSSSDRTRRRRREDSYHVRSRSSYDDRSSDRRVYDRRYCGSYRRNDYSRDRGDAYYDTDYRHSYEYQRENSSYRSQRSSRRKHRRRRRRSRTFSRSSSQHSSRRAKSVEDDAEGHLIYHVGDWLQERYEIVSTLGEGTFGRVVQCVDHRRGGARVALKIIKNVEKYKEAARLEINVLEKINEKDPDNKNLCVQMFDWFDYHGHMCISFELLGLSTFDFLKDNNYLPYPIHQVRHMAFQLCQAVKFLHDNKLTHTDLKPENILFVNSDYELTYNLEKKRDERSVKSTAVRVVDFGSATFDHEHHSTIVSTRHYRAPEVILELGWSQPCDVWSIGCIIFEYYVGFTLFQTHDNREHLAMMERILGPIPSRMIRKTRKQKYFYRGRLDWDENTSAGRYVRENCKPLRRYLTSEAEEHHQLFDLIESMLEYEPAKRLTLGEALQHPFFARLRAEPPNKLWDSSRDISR

INSR = INSR (Homo sapiens, UniProt P06213)
AAK1 = AAK1 (Homo sapiens, UniProt Q2M2I8)
PIP5K2B = molecular target: T6, PIP5K2B (Homo sapiens, UniProt P78356)
T6 construct: gene PIP4K2B

PIK3CA(M1043I) = PIK3CA(M1043I) (Homo sapiens, UniProt P42336, M1043I)
CDKL5 = CDKL5 (Homo sapiens, UniProt O76039)
CAMK1D = CAMK1D (Homo sapiens, UniProt Q8IU85)
Sequence of CAMK1D (Q8IU85 whole entry): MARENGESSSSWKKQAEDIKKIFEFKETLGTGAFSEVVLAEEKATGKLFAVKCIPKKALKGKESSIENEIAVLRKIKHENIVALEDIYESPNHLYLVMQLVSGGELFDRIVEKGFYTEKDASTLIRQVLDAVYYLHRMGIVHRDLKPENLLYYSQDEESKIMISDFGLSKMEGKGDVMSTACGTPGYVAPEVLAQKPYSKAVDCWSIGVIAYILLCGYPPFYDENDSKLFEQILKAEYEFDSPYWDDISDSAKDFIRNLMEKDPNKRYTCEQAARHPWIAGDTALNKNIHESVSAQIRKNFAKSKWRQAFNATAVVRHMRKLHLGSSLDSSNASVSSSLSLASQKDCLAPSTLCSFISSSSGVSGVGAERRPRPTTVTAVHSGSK

KIT(A829P) = KIT(A829P) (Homo sapiens, UniProt P10721, A829P)
LRRK2 = LRRK2 (Homo sapiens, UniProt Q5S007)
CSNK1G3 = CSNK1G3 (Homo sapiens, UniProt Q9Y6M4)
SRPK2 = SRPK2 (Homo sapiens, UniProt P78362)
TNIK = TNIK (Homo sapiens, UniProt Q9UKE5)

Sequence of CSNK1A1 (P48729 whole entry): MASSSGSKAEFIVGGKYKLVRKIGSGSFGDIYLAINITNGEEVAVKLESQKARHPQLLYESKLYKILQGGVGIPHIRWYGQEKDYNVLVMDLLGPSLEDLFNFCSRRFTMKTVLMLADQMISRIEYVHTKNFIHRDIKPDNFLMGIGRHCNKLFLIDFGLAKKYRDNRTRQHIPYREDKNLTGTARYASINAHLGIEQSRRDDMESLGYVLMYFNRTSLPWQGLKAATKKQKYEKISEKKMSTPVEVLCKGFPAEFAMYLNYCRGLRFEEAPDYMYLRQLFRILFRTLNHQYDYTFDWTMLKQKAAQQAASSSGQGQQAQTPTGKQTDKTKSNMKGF
Sequence of FGFR4 (P22455 whole entry): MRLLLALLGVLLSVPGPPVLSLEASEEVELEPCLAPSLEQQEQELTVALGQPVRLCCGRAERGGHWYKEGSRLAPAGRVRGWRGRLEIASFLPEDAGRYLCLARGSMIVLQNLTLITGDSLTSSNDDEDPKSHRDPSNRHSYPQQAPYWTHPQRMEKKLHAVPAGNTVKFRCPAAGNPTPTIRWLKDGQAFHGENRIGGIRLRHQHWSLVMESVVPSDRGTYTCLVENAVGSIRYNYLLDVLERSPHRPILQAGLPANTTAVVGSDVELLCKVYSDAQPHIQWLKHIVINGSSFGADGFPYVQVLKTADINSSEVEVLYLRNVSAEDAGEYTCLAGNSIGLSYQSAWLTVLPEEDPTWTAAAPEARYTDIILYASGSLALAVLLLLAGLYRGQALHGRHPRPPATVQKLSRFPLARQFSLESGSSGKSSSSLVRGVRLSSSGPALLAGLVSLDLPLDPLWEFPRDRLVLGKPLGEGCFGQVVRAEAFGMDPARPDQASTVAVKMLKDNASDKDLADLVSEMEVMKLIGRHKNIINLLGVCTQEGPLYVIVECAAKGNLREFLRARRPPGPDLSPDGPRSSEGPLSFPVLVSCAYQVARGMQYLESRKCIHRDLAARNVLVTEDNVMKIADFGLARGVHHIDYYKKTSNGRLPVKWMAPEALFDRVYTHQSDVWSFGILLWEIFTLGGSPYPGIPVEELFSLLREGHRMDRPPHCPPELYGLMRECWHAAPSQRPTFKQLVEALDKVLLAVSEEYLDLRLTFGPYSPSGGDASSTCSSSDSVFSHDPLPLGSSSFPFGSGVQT

Structure (SMILES): Cc1cn(-c2cc(NC(=O)c3ccc4c(c3)CN(c3cncnc3)C[C@@H]4C)cc(C(F)(F)F)c2)cn1 [Compound 6j]
- remaining activity at 1 µM (NDR2): 100%
- remaining activity at 1 µM (CSNK1A1): 57%
- remaining activity at 1 µM (FGFR4): 85%
- remaining activity at 1 µM (MST2): 100%
- remaining activity at 1 µM (SgK110): 98%
- remaining activity at 1 µM (CSNK1G2): 92%
- remaining activity at 1 µM (MAP3K4): 56%
- remaining activity at 1 µM (CDKL3): 100%
- remaining activity at 1 µM (FLT3(D835H)): 59%
- remaining activity at 1 µM (IRAK4): 100%
- remaining activity at 1 µM (IRAK3): 86%
- remaining activity at 1 µM (PIK3CA(Q546K)): 100%
- remaining activity at 1 µM (HASPIN): 100%
- remaining activity at 1 µM (FLT3(K663Q)): 62%
- remaining activity at 1 µM (MRCKA): 93%
- remaining activity at 1 µM (EPHA5): 74%
- remaining activity at 1 µM (EPHA7): 62%
- remaining activity at 1 µM (STK39): 100%
- remaining activity at 1 µM (ROCK2): 96%
- remaining activity at 1 µM (AMPK-alpha1): 83%
- remaining activity at 1 µM (PRKD2): 92%
- remaining activity at 1 µM (AKT1): 96%
- remaining activity at 1 µM (MAP4K2): 93%
- remaining activity at 1 µM (CLK2): 86%
- remaining activity at 1 µM (INSR): 100%
- remaining activity at 1 µM (AAK1): 77%
- remaining activity at 1 µM (PIP5K2B): 81%
- remaining activity at 1 µM (PIK3CA(M1043I)): 93%
- remaining activity at 1 µM (CDKL5): 100%
- remaining activity at 1 µM (CAMK1D): 71%
- remaining activity at 1 µM (KIT(A829P)): 100%
- remaining activity at 1 µM (LRRK2): 100%
- remaining activity at 1 µM (CSNK1G3): 72%
- remaining activity at 1 µM (SRPK2): 100%
- remaining activity at 1 µM (TNIK): 86%
